Measurements from patent publication US8349793B2, “Method for treatment of inflammatory disease and disorder” (Heal0r, Ltd., priority 2010, dated 2013).
Where no end group is shown, it is not given here.

What was measured:
keratinocytes [1] = experiment: Cytokine secretion in keratinocytes stimulated by LPS, TNFα or IL-17 (ELISA); type: cell-based, BALB/C mice; details: for cytokine secretion in keratinocytes: stimulated by LPS, TNFα, or IL-17
Protocol: To determine their effects, keratinocytes were derived from newborn BALB/C mice skin. The cells were incubated for 5 days in 24 wells plate. Cells were then incubated with PBS−/− as control or stimulated by LPS, TNFα, or IL-17. PKCα inhibitors were added as indicated. Medium containing secreted cytokines was collected after 48 hr and analyzed using ELISA. FIG. 40 is a tabular summary of cytokine secretion.
PKCδactivators were also shown to have an anti-inflammatory effect on keratinocytes and splenocytes. Keratinocytes were derived from newborn BALB/C mice skin. The cells were incubated for 5 days in 24 wells plate. Cells were then incubated with PBS−/− as control or stimulated by LPS or TNFα. The PKCδ inhibitor DAP-1 (SEQ ID NO: 16) was added. Medium containing secreted cytokines was collected after 48 hr and analyzed using ELISA. FIG. 35 is a tabular summary showing cytokine secretion in splenocytes stimulated with LPS. […] Cytokine secretion in keratinocytes stimulated by TNFα: following stimulation with 35 ng/ml TNFα. And treatment with 10 μg/ml of DAP-1, the cytokine levels of IL-1α, G-CSF, MIP-2 and KC were reduced by 95%, 70%, 20% and 30# respectively.
PKCε inhibitors were also shown to have an anti-inflammatory effect on keratinocytes. Keratinocytes were derived from newborn BALB/C mice skin. The cells were incubated for 5 days in 24 wells plate. Cells were then incubated with PBS−/− as control or stimulated by LPS or TNFα. The PKCεinhibitors EPIP-1 (SEQ ID NO: 20), EPIP-2 (SEQ ID NO: 21), or EPIP-4 (SEQ ID NO: 23) were added. Medium containing secreted cytokines was collected after 48 hr and analyzed using ELISA. FIGS. 36-39 show the results for secretion of specific cytokines while Table 8 summarizes cytokine secretion for the various PKCε inhibitors: […]

keratinocytes [2] = experiment: Keratinocyte proliferation in vitro (PCNA); type: cell-based, Balb/c mice; details: concentration not given
Protocol: Primary murine keratinocytes from 2 days old Balb/c mice were grown for 5 days to reach full confluence in 0.05 mM Ca^2+ MEM medium. HO/02/10 treatment (10^−6M and 10^−5M) was applied 6 hours prior to induction of differentiation. Cells were harvested, run on SDS PAGE gel and immunoblotted using anti-PCNA antibodies. In addition, C57Black mice, 8-10 weeks of age were subjected to full thickness wounding in the upper back area to induce epidermis remodeling and differentiation. Following the wounding, mice were treated daily with HO/02/10 (ranged 40-4000 mg/kg/day) for 7 days. At the termination point, mice were euthanized and upper back skin samples were fixed in 4% paraformaldehyde solution, following paraffin embedding and slide preparation. Skin samples were then subjected to immunohistochemical staining utilizing PCNA antibody. (n=18).
(§1) FIGS. 7 and 8 presents a summary of expression data in keratinocytes utilizing various peptide PKCα inhibitors: MPDY-1 (SEQ ID NO: 21) as well as data for the peptide PKCα inhibitors AIP-1 (SEQ ID NO: 3), AIP-2 (SEQ ID NO: 20), AWOT-1 (SEQ ID NO: 5) and PPDY-1 (SEQ ID NO: 22). […] FIG. 8 presents a summary of expression data in keratinocytes for various peptide PKCα inhibitors.

keratinocytes [3] = experiment: Keratinocyte migration; type: cell-based; parameters: concentration or dose not given beside the values
keratinocytes [4] = experiment: Keratinocyte differentiation markers (Filaggrin, Loricrin, Keratin 1); type: cell-based, C57BL/6J mice; details: concentration: EPIP1 and DAP1 1 μg/ml, 10 μg/ml, EPIP2 10 μg/ml
Protocol: Keratinocytes derived from C57BL/6J mice were incubated in medium containing Ca^2+ to induce keratinocytes differentiation. Cells were then incubated in the presence of […] (1 μg/ml). Cells were harvested, run on SDS PAGE gel and immunoblotted using anti-Filaggrin (Fil), anti Loricrin (Lor) and anti-Keratin 1 (K1) antibody.
as §1

splenocytes = experiment: Cytokine secretion in splenocytes stimulated with LPS or TNFα (ELISA); type: cell-based, B6 mice
Text: Inhibitory effect on activated splenocytes: Splenocytes were derived from B6 mice. […] Medium containing secreted cytokines was collected after 48 hr and analyzed using ELISA.

[5] = keratinocytes, upon LPS and TNFa activation
[6] = Splenocytes, Induction: LPS (1 μg/ml) (given for DAP1 only), peptide (10 μg/ml)
[7] = Keratinocytes, Induction: TNFα (35 ng/ml), peptide (10 μg/ml)
[8] = keratinocytes, 35 ng/ml TNFα, 10 μg/ml of DAP-1
[9] = LPS 1 [μg/ml], peptide [10 μg/ml], 48 hr
[10] = TNF [35 ng/ml], peptide [10 μg/ml], 48 hr
[11] = keratinocytes, LPS (1 μg/ml) (EPIP4: printed 1 mg/ml), peptide concentration not given
[12] = keratinocytes, TNFa stim (35 ng/ml), 1 μg/ml of peptide (given for EPIP1, EPIP2, not for EPIP4), reduction printed with or without minus sign

In the case of Pro-Ala-Trp-His-Asp (PAWHD) [EPIP-3], the “cytokine secretion, comparison with MPDY-1” value (keratinocytes [1]; keratinocytes, IL-17 activation) is reported as “IL-17: similar effect to MPDY-1”, the “pro-inflammatory cytokines, chemokines (effect)” value (keratinocytes [1]; [5]) is reported as “Reduces pro-inflammatory cytokines,” and the “pro-inflammatory cytokines, chemokines, comparison with MPDY-1” value (keratinocytes [1]; [5]) is reported as “chemokines, better than MPDY-1 upon”. The “Proliferation markers (PCNA)” value (keratinocytes [2]) was “Induces”, the “Migration, Induces” value (keratinocytes [3]) was “(200%)” and the “Differentiation markers: granular differentiation” value (keratinocytes [4]) was “Reduces granular”.
TLNPQWES [AIP-1] was tested, and the “cytokine secretion in keratinocytes” value (keratinocytes [1]; 48 hr) was “effective in decreasing cytokine secretion”.
With MRAAEAAAAEPM [DAP-1] the “Reduces Chemokine: KC” value (splenocytes; [6]) was “KC (32%), as”, the “reduces proinflamatory cytokine: IL-1α” value (splenocytes; [6]) was “IL-1α (45%),” and the “reduces systemic cytokine: G-SCF” value (splenocytes; [6]) was “(40%),”. The “induces antiinflamatory cytokine: IL 10” value (splenocytes; Splenocytes, Induction: LPS (1 μg/ml), DAP1 (1 μg/ml)) was “IL 10 (200%)”, the “Reduces TNFa expression” value (splenocytes; Splenocytes, Induction: LPS (1 μg/ml), DAP1 (10 μg/ml)) was “expression (28%)” and the “inflammatory cytokine secretion in splenocytes” value (splenocytes; stimulated with LPS) was “significantly decease”. For the same substance, the “Reduces Chemokines: KC” value (keratinocytes [1]; [7]) was “KC (32%), MIP2”, the “Reduces Chemokines: MIP2” value (keratinocytes [1]; [7]) was “(30%)” and the “Reduces proinflamatory cytokine: IL-1a” value (keratinocytes [1]; [7]) was “(40%)”. For the same substance, the “Reduces proinflamatory cytokine: IL-6” value (keratinocytes [1]; [7]) was “(20%) and IL-1a”, the “Reduces systemic cytokine GM-CSF” value (keratinocytes [1]; [7]) was “GM-CSF (50%)” and the “cytokine level of G-CSF reduced by” value (keratinocytes [1]; [8]) was 70%. For the same substance, the “cytokine level of IL-1α reduced by” value (keratinocytes [1]; [8]) was 95%, the “cytokine level of KC reduced by” value (keratinocytes [1]; [8]) was 30 and the “cytokine level of MIP-2 reduced by” value (keratinocytes [1]; [8]) was 20%. The “inflammatory cytokine secretion in keratinocytes” value (keratinocytes [1]; stimulated by LPS or TNFα) was “significantly decease”, the “Proliferation markers (PCNA)” value (keratinocytes [2]) was “Reduces” and the “Migration, Induces” value (keratinocytes [3]) was “(200%)”. For the same substance, the “Differentiation markers: granular differentiation” value (keratinocytes [4]) was “induces”.
In the case of EAVSLKPT [EPIP-1], the “G-CSF secretion (change)” value (keratinocytes [1]; [9]) is reported as −70%, the “IL-6 secretion (change)” value (keratinocytes [1]; [9]) is reported as −55% and the “IP-10 secretion (change)” value (keratinocytes [1]; [9]) is reported as −60%. The “KC secretion (change)” value (keratinocytes [1]; [9]) was −100%, the “G-CSF secretion (change)” value (keratinocytes [1]; [10]) was −85% and the “IL-6 secretion (change)” value (keratinocytes [1]; [10]) was −95%. The “IP-10 secretion (change)” value (keratinocytes [1]; [10]) was “(−45%)”, the “G-CSF secretion (change)” value (keratinocytes [1]; [11]) was −70% and the “IL-6 secretion (change)” value (keratinocytes [1]; [11]) was −55%. For the same substance, the “IP-10 secretion (change)” value (keratinocytes [1]; [11]) was −60%, the “KC secretion (change)” value (keratinocytes [1]; [11]) was −100% and the “Reduces Chemokines IP 10” value (keratinocytes [1]; [12]) was “Chemokines IP 10 (45%)”. The “Reduces proinflammatory cytokines IL-6” value (keratinocytes [1]; [12]) was 95%, the “Reduces systemic cytokines G-SCF” value (keratinocytes [1]; [12]) was −85% and the “Proliferation markers (PCNA)” value (keratinocytes [2]) was “Induces”. The “Migration, Induces” value (keratinocytes [3]) was “(200%)”, the “Differentiation markers: granular differentiation” value (keratinocytes [4]) was “Reduces granular” and the “Differentiation markers: spainous differentiation” value (keratinocytes [4]) was “Reduces granular”.
With FARKGALRQ [AWOT] the “cytokine secretion from LPS and TNFα activated keratinocytes” value (keratinocytes [1]; FIGS. 19 to 23) was “decrease”, the “cytokine secretion from IL-17A activated keratinocytes” value (keratinocytes [1]; FIGS. 24 to 27) was “decrease” and the “cytokine secretion in keratinocytes” value (keratinocytes [1]; 48 hr) was “effective in decreasing cytokine secretion”.
